Assay results from publication PMC4685510, “A Cell Biologist’s Field Guide to Aurora Kinase Inhibitors” (Frontiers in Oncology, 2015).

Legend:
Experiment in all cases: biochemical
Type in all cases: biochemical
[1] = molecular target: 363 human kinases (including Aurora A/B/C) (Homo sapiens, UniProt P09769); conditions: FGR, [ATP] 50 µM; for remaining activity at 0.1 µM: 100 nM; for remaining activity at 0.1 µM / remaining activity at 0.5 µM: read-out: % Enzyme Activity (relative to DMSO controls)
Excerpt: (§1) However, the Aurora A/B selectivity ratios derived from our in vitro and in vivo data can be compared to prioritize inhibitors.

[2] = molecular target: T1, 363 human kinases (including Aurora A/B/C) (Homo sapiens, UniProt P52333); conditions: JAK3; for remaining activity at 0.1 µM: 100 nM; for remaining activity at 0.1 µM / remaining activity at 0.5 µM: read-out: % Enzyme Activity (relative to DMSO controls)
T1 sequence (P52333 1-1124): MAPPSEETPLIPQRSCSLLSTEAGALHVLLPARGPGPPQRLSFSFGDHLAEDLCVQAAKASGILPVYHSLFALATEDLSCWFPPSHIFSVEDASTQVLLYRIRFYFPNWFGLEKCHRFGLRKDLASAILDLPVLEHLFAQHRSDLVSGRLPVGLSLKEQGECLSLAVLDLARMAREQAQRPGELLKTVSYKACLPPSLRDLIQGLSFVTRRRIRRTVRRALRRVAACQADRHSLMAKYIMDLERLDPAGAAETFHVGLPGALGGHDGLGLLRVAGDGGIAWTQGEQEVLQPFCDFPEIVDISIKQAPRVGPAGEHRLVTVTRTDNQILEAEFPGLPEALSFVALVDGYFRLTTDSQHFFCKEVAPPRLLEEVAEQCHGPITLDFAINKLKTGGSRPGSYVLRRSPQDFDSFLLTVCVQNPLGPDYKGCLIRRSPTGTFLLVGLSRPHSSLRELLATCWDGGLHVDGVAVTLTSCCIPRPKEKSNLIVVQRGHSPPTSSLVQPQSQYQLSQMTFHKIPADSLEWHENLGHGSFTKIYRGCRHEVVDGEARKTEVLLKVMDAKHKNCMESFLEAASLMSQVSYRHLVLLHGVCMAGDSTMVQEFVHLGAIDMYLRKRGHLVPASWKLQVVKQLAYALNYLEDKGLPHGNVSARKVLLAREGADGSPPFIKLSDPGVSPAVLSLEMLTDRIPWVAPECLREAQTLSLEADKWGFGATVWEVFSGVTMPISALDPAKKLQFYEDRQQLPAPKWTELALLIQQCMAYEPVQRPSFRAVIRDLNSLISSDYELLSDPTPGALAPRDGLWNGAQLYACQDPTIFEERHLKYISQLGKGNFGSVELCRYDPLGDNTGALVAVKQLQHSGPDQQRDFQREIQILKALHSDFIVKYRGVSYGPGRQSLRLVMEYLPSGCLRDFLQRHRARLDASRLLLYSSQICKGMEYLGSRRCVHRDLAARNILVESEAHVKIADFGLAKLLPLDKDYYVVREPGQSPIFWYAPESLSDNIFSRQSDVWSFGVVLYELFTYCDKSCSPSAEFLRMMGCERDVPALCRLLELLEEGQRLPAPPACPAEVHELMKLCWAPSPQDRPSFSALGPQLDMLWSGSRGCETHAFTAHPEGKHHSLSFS
Excerpt: as §1

[3] = molecular target: 363 human kinases (including Aurora A/B/C) (Homo sapiens, UniProt Q52WX2); conditions: SBK1; for remaining activity at 0.1 µM: 100 nM; for remaining activity at 0.1 µM / remaining activity at 0.5 µM: read-out: % Enzyme Activity (relative to DMSO controls)
Excerpt: as §1

[4] = molecular target: T2, 363 human kinases (including Aurora A/B/C) (Homo sapiens, UniProt Q8N752); conditions: CK1a1L, [ATP] 30 µM; for remaining activity at 0.1 µM: 100 nM; for remaining activity at 0.1 µM / remaining activity at 0.5 µM: read-out: % Enzyme Activity (relative to DMSO controls)
T2 sequence (Q8N752 1-337): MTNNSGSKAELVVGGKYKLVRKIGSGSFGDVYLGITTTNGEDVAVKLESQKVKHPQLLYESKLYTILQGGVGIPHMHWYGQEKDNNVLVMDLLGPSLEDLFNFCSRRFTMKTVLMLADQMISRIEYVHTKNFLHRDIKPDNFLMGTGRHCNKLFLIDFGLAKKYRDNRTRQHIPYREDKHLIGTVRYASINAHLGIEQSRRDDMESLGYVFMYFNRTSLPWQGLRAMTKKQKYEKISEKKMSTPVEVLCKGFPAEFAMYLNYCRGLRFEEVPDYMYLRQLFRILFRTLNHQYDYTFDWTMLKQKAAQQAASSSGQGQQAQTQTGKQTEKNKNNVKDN
Excerpt: as §1

[5] = molecular target: T3, 363 human kinases (including Aurora A/B/C) (Homo sapiens, UniProt Q9Y2U5); conditions: MEKK2; for remaining activity at 0.1 µM: 100 nM; for remaining activity at 0.1 µM / remaining activity at 0.5 µM: read-out: % Enzyme Activity (relative to DMSO controls)
T3 sequence (Q9Y2U5 1-619): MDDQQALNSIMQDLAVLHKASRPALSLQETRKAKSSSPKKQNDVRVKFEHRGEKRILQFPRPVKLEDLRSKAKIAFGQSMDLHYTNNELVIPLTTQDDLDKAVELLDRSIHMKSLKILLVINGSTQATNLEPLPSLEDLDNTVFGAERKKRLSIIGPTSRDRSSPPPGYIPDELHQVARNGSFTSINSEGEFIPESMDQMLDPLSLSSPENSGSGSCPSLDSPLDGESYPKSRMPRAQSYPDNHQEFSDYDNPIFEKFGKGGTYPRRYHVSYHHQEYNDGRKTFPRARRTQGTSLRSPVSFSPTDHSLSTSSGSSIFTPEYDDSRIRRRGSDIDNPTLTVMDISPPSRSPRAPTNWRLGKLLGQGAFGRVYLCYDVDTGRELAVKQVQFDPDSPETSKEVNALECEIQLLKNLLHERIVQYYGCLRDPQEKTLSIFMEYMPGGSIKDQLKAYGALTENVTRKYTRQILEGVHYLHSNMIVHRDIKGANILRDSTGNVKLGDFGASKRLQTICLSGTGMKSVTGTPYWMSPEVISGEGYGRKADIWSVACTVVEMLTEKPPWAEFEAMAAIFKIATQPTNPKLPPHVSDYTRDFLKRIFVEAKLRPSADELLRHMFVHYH
Excerpt: as §1

Sequence of 363 human kinases (including Aurora A/B/C) (Homo sapiens, UniProt Q52WX2) (Q52WX2 whole entry): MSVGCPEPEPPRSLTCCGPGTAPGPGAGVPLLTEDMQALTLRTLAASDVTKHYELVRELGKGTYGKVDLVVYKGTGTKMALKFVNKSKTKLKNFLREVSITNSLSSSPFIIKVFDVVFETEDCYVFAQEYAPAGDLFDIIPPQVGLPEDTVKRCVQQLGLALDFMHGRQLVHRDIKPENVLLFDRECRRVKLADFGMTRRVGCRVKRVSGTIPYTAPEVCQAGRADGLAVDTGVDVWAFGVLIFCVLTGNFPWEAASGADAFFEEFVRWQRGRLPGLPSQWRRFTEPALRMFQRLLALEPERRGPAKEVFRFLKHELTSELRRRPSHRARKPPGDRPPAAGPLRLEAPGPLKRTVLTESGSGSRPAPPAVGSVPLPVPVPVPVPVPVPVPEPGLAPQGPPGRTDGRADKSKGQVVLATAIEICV
Sequence of 363 human kinases (including Aurora A/B/C) (Homo sapiens, UniProt P09769) (P09769 whole entry): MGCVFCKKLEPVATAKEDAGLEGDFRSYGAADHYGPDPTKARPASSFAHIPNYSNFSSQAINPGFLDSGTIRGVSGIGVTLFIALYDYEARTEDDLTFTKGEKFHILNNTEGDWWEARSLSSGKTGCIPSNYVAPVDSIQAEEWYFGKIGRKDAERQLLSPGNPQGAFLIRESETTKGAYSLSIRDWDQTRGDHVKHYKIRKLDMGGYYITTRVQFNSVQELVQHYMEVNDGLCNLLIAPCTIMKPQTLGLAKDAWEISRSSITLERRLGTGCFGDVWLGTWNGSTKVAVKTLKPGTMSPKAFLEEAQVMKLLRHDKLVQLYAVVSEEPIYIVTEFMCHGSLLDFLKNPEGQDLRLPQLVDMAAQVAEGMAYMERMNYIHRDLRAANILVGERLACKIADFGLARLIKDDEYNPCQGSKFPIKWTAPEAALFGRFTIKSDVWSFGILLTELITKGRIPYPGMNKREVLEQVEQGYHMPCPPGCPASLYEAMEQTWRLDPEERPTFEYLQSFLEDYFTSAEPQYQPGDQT

| Compound | remaining activity at 0.1 µM [1] [%] | remaining activity at 0.1 µM [2] [%] | remaining activity at 0.1 µM [3] [%] | remaining activity at 0.1 µM [4] [%] | remaining activity at 0.1 µM [5] [%] | remaining activity at 0.5 µM ([1]; 500 nM) [%] | remaining activity at 0.5 µM ([2]; 500 nM) [%] | remaining activity at 0.5 µM ([3]; 500 nM) [%] | remaining activity at 0.5 µM ([4]; 500 nM) [%] | remaining activity at 0.5 µM ([5]; 500 nM) [%] | % Enzyme Activity (relative to DMSO controls) ([1]; 500 nM) [%] | % Enzyme Activity (relative to DMSO controls) ([2]; 500 nM) [%] | % Enzyme Activity (relative to DMSO controls) ([3]; 500 nM) [%] | % Enzyme Activity (relative to DMSO controls) ([4]; 500 nM) [%] | % Enzyme Activity (relative to DMSO controls) ([5]; 500 nM) [%] |
| --- | --- | --- | --- | --- | --- | --- | --- | --- | --- | --- | --- | --- | --- | --- | --- |
| CCn1cc(-c2ccnc3[nH]c(-c4cccc(CN(C)C)c4)cc23)c(-c2ccc(NC(=O)N(C)C)cc2)n1 [GSK1070916] | 97.8 | 97.2 | 101 | 108 | 81.7 | – | – | – | – | – | – | – | – | – | – |
| O=C(O)[C@]1(Cc2cccc(Nc3nccs3)n2)CC[C@@H](Oc2cccc(Cl)c2F)CC1 [MK-5108] | 22.9 | 31.4 | 102 | 108 | 102 | 6.36 | 6.75 | 96.3 | 115 | 83.9 | – | – | – | – | – |
| O=C(c1cccc(Cl)c1F)N1CCN(Cc2cccc(Nc3nccs3)n2)CC1 [MK-8745] | – | – | – | – | – | 36.3 | 85.6 | 96.4 | 103 | 97.5 | 35.97 | 84.37 | 95.86 | 102.40 | 96.27 |
